Data as given in patent US20170027940A1, “METHOD FOR TREATING CANCER” (STICHTING HET NEDERLANDS KANKER INSTITUUT, priority 2014, published 2017).
Values belong to the molecule of their own block, whether it stands above or below them.

What was measured:
[1] = test system: PLX4720-resistant MITF^acq^_^gain cells; assay: long-term viability assay, crystal violet staining; format: cell-based, human; conditions: crystal violet after 6 days
Method: FIG. 5: Loss of MITF confers cross-resistance and increases invasiveness of resistant cells. Two PLX4270-resistant cells lines (Me1888 and SkMe128) and their treatment-naïve counterparts were treated with either ERKi, MEKi, the BRAFinhibitor Dabrafenib or a combination of the latter and stained with crystal violet after 6 days of treatment.
(§1) Cell line sources: Melanoma cell lines and HEK293T were cultured in DMEM/9% FBS (Sigma), 2 mM glutamine, 100 U/mL penicillin and 0.1 mg/mL streptomycin (all Gibco) under standard conditions. HEK293T cells were used for virus production for MITF-overexpression and shRNAs. Briefly HEK293T cells were transfected with the plasmid of interest and the helper plasmids (pMDLglpRRE, pHCMV-G, and pRSVrev). Viral supernatant was either fresh frozen or subsequently used for infection. Infected melanoma cells were positively selected with puromycin (Sigma). For dose response curve and colony formation assay cells were plated in a line-specific manner. Equal concentration of inhibitors was added one day after set up. For short-term viability assay (dose response curve) cells were plated in a 96-well format and drugs diluted with the HP D300 Digital Dispenser (Tecan). […] Two hours later luminescence was measured by the infinite M200 microplate reader (Tecan, Giessen, Germany). […]

[2] = test system: MITF^endo^_^hi and MITF^endo^_^lo cell lines; assay: dose response curve (short-term viability assay); format: cell-based, human; conditions: four MITF^endo^_^lo versus four MITF^endo^_^hi cell lines
Method: Cell line sources: Melanoma cell lines and HEK293T were cultured in DMEM/9% FBS (Sigma), 2 mM glutamine, 100 U/mL penicillin and 0.1 mg/mL streptomycin (all Gibco) under standard conditions. […] For dose response curve and colony formation assay cells were plated in a line-specific manner. Equal concentration of inhibitors was added one day after set up. For short-term viability assay (dose response curve) cells were plated in a 96-well format and drugs diluted with the HP D300 Digital Dispenser (Tecan). After three to five days incubation old medium was replaced by a dilution of CellTiter Blue reagent or CellTiter-Glo Luminescent Cell Viability Assay (Promega, Madison, Wiss.) in medium. Two hours later luminescence was measured by the infinite M200 microplate reader (Tecan, Giessen, Germany).
(§2) We then determined the spectrum of drug sensitivity among the MITF^endo^_^lo and MITF^endo^_^hi cells.

[3] = test system: MITF^endo^_^lo and MITF^endo^_^hi BRAF mutant melanoma cells; assay: cell proliferation assay and PARP cleavage; format: cell-based, human; conditions: 5 μM, six days; MITF^endo^_^lo versus MITF^endo^_^hi cells
Method: FIG. 7: BRAFV600E mutant melanoma cells were plated in low density and treated with 5 μM PLX4270 for 6 days or left untreated and stained with crystal violet (left panel).
Cell line sources: Melanoma cell lines and HEK293T were cultured in DMEM/9% FBS (Sigma), 2 mM glutamine, 100 U/mL penicillin and 0.1 mg/mL streptomycin (all Gibco) under standard conditions. […] For dose response curve and colony formation assay cells were plated in a line-specific manner. Equal concentration of inhibitors was added one day after set up. For short-term viability assay (dose response curve) cells were plated in a 96-well format and drugs diluted with the HP D300 Digital Dispenser (Tecan). After three to five days incubation old medium was replaced by a dilution of CellTiter Blue reagent or CellTiter-Glo Luminescent Cell Viability Assay (Promega, Madison, Wiss.) in medium. Two hours later luminescence was measured by the infinite M200 microplate reader (Tecan, Giessen, Germany). Long-term viability assays were performed in 6-well or 12-well format. Inhibitors solutions were replaced every two to three days and plates stained with crystal violet after six to nine days of treatment (as indicated). For immunoblot analysis cells were treated on 10 cm dishes and snap-frozen after harvesting.
as §2

ERK phosphorylation = assay: immunoblot of ERK phosphorylation; format: cell-based, human; conditions: 5 μM; irrespective of MITF status
Method: For immunoblot analysis cells were treated on 10 cm dishes and snap-frozen after harvesting.
Cells were lysed in RIPA buffer and protein concentration measured with Bio-Rad protein assay. Immunoblots were performed according to standard protocols on 4 to 12% bis-Tris precast or 3-8% tris-acetate gels (NuPage). […] MAP kinase p44/42 thy202/Tyr204 (9106) and PDGFRbeta (31695) from Cell Signaling.

[4] = test system: receptor tyrosine kinases (RTKs); assay: phospho-RTK array; format: cell-based, human; conditions: 5 μM, two days
Method: Phospho-RTK assay was performed using the human Phospho-RTK Array from RD Systems (Minneapolis, USA). All steps were performed according to the manufactures protocol.
Encouraged by these findings, we compared the phosphorylation status of RTKs in one MITF^endo^_^lo and one MITF^endo^_^lo cell line.

MITF = MITF expression during acquisition of resistance; format: cell-based, human; conditions: short-term exposure, M229 and M238 MITF^acq^_^loss melanoma cell lines
Method: RNA was isolated using Trizol (Ambion), following standard protocol. Reverse transcription was performed using a kit from Invitrogen. Primers were designed using Primer Express software. QRT-PCR was performed with SYBR green master mix (Applied Biosystems) on a StepOnePlus Real-Time PCR system (Applied Biosystems, Warrington, UK). RNA levels were normalized against beta-actin or RPL13. Following primers were used: To study the dynamics of MITF downregulation as a function of the acquisition of a resistant phenotype, two independent MITF^acq^_^loss melanoma cell lines (M229 and […]; {Shi:2014fm}) were permanently exposed to 1 μM vemurafenib and monitored in time.

[5] = test system: AXL-expressing PLX4270-resistant melanoma cells; assay: long-term viability assay, crystal violet staining; format: cell-based, human; conditions: 0.3 μM AXL inhibitor, nine days, in two out of three resistant cell lines
Method: FIG. 12: AXL-expressing PLX4270-resistant melanoma cells were exposed to 0.3 μM AXL inhibitor for nine days and the remaining cells stained with crystal violet.
as §1
Next, we determined the expression pattern of these RTKs in acquired resistance, particularly in PLX4720-sensitive cells and their resistant counterparts. […]

[6] = test system: BRAFV600E mutant melanoma cell line (04.07); assay: sensitivity of screening cell line to ERK inhibitor; format: cell-based, human; conditions: not all cells are killed even at high concentration
Method: The insertional mutagenesis screen was performed as described previously (Lu et al. Proc Natl Acad Sci U S A. (2009) 22;106(38):16339-44). Briefly, an intermediate sensitive melanoma cell line of low passage (Me104.07) was infected separately with the three different VBIM constructs (SD1-3). Two days after infection cells were exposed to 1 μM […] for three weeks till single colonies had formed. These were picked and separately cultured. For identification of insertions Splinkerette-PCR was used according to the published protocol and Sanger sequencing applied on amplified products.
To identify proteins conferring resistance to MAPK pathway inhibition by the recently available ERK inhibitor 5CH772984, we performed a lentiviral insertional mutagenesis screen using the VBIM system. Carrying a GFP-sequence and a strong CMV promoter, the virus integrates in the genome, resulting in an activation of downstream sequences that leads to overexpression of a FLAG-tagged protein. Due to […] excision the insertion can be excised by addition of 4-Hydroxytamoxifen (4-OHT). […] We infected this cell line with the three versions of the insertional mutagenesis vector (SD1-3). After three weeks of culturing in the presence of 1 μM SCH772984, we were able to pick drug-resistant clones and individually expanded them. […]

[7] = test system: BRAF and BRAF/MEK inhibitor-resistant cells; conditions: Morris et al. 2013; cited from earlier work

Compound: CC(C)(C)c1nc(-c2cccc(NS(=O)(=O)c3c(F)cccc3F)c2F)c(-c2ccnc(N)n2)s1 [Dabrafenib]
sensitivity in long-term experiment [1]: resistant

Compound: CC(=O)Nc1cccc(-n2c(=O)n(C3CC3)c(=O)c3c(Nc4ccc(I)cc4F)n(C)c(=O)c(C)c32)c1 [MEKi]
increase in resistance, as measured from the IC50 values [2]: up to 1000 fold

activation of RTKs ([4]; MITF^endo^_^hi cells): only a minor activation
activation of RTKs ([4]; MITF^endo^_^lo cells): further increased
Compound: CCCS(=O)(=O)Nc1ccc(F)c(C(=O)c2c[nH]c3ncc(Cl)cc23)c1F [PLX4720]
survival of cells upon exposure [3]: clear survival benefit
ERK phosphorylation (ERK phosphorylation): diminished
MITF expression (MITF): sharply dropped

Compound: Nc1nc(Nc2ccc3c(c2)CCC(N2CCCC2)CC3)nn1-c1cc2c(nn1)-c1ccccc1CCC2 (stereo not shown) [R428]
proliferation/viability upon drug treatment [5]: strong decrease in proliferation/viability

Compound: O=C(Nc1ccc2[nH]nc(-c3ccncc3)c2c1)[C@@H]1CCN(CC(=O)N2CCN(c3ccc(-c4ncccn4)cc3)CC2)C1 [SCH772984]
sensitivity to the inhibitor [6]: intermediately sensitive
proliferation [7]: effectively block proliferation
